Species on record: Rattus norvegicus
Test: DrugMatrix - Regimen: Daily Repeat
Type: toxicity, organism-based, Sprague-Dawley
Set-up: regimen Daily Repeat, gender Male, age 6-8 weeks
Settings: in vivo, po, route oral GAVAGE, vehicle .5 % CMC; for ABSOLUTE BASOPHIL / ABSOLUTE EOSINOPHIL / ABSOLUTE LYMPHOCYTE / ABSOLUTE MONOCYTE / ABSOLUTE SEGMENTED NEUTROPHIL / BASOPHIL / EOSINOPHIL / ERYTHROCYTE COUNT / HEMATOCRIT / HEMOGLOBIN / LEUKOCYTE COUNT / LYMPHOCYTE / MEAN CORPUSCULAR HEMOGLOBIN / MEAN CORPUSCULAR HEMOGLOBIN CONCENTRATION / MEAN CORPUSCULAR VOLUME / MONOCYTE / NEUTROPHIL / NUCLEATED RED BLOOD CELLS / PLATELET COUNT: tissue Blood; for ALANINE AMINOTRANSFERASE / ALBUMIN / ALKALINE PHOSPHATASE / ASPARTATE AMINOTRANSFERASE / BLOOD UREA NITROGEN / CARBON DIOXIDE / CHLORIDE / CHOLESTEROL / CREATINE PHOSPHOKINASE / CREATININE / GLUCOSE / LACTATE DEHYDROGENASE / LIPASE / PHOSPHORUS / POTASSIUM / SODIUM / TOTAL BILIRUBIN / TOTAL PROTEIN / URIC ACID: tissue Plasma
[1] = 0 mg/kg, 72 h, dose level Control, time 3 day
[2] = 0 mg/kg, 120 h, dose level Control, time 5 day
[3] = 200 mg/kg, 72 h, dose level Low, time 3 day

Cc1cnc(C(=O)NCCc2ccc(S(=O)(=O)NC(=O)NC3CCCCC3)cc2)cn1 [GLIPIZIDE]
ABSOLUTE BASOPHIL [1]: 0 CELLS/uL
ABSOLUTE EOSINOPHIL [1]: 0 CELLS/uL
ABSOLUTE LYMPHOCYTE [1]: 12191.17 CELLS/uL
ABSOLUTE MONOCYTE [1]: 183.17 CELLS/uL
ABSOLUTE SEGMENTED NEUTROPHIL [1]: 1192.33 CELLS/uL
BASOPHIL [1]: 0%
EOSINOPHIL [1]: 0%
ERYTHROCYTE COUNT [1]: 5.51 x10E6/uL
HEMATOCRIT [1]: 35.45%
HEMOGLOBIN [1]: 13.82 G/DL
LEUKOCYTE COUNT [1]: 13.57 x10E3/uL
LYMPHOCYTE [1]: 89.83%
MEAN CORPUSCULAR HEMOGLOBIN [1]: 25.1 pg
MEAN CORPUSCULAR HEMOGLOBIN CONCENTRATION [1]: 38.98 G/DL
MEAN CORPUSCULAR VOLUME [1]: 64.42 fL
MONOCYTE [1]: 1.33%
NEUTROPHIL [1]: 8.83%
NUCLEATED RED BLOOD CELLS [1]: 0 /100WBC
PLATELET COUNT [1]: 1118.17 x10E3/uL
ALANINE AMINOTRANSFERASE [1]: 55 u/L
ALBUMIN [1]: 4.15 G/DL
ALKALINE PHOSPHATASE [1]: 449.5 u/L
ASPARTATE AMINOTRANSFERASE [1]: 112.83 u/L
BLOOD UREA NITROGEN [1]: 17.33 mg/dL
CARBON DIOXIDE [1]: 29.5 mmol/L
CHLORIDE [1]: 101 MEQ/L
CHOLESTEROL [1]: 70 mg/dL
CREATINE PHOSPHOKINASE [1]: 1325.83 u/L
CREATININE [1]: 0.18 mg/dL
GLUCOSE [1]: 171.5 mg/dL
LACTATE DEHYDROGENASE [1]: 386 u/L
LIPASE [1]: 10 u/L
PHOSPHORUS [1]: 11.57 mg/dL
POTASSIUM [1]: 6.21 MEQ/L
SODIUM [1]: 141.65 MEQ/L
TOTAL BILIRUBIN [1]: 0.15 mg/dL
TOTAL PROTEIN [1]: 5.75 G/DL
URIC ACID [1]: 1.28 mg/dL
ABSOLUTE BASOPHIL [2]: 0 CELLS/uL
ABSOLUTE EOSINOPHIL [2]: 138.17 CELLS/uL
ABSOLUTE LYMPHOCYTE [2]: 13283.17 CELLS/uL
ABSOLUTE MONOCYTE [2]: 303.83 CELLS/uL
ABSOLUTE SEGMENTED NEUTROPHIL [2]: 1308.17 CELLS/uL
BASOPHIL [2]: 0%
EOSINOPHIL [2]: 1%
ERYTHROCYTE COUNT [2]: 5.32 x10E6/uL
HEMATOCRIT [2]: 33.8%
HEMOGLOBIN [2]: 13.63 G/DL
LEUKOCYTE COUNT [2]: 15.03 x10E3/uL
LYMPHOCYTE [2]: 88.33%
MEAN CORPUSCULAR HEMOGLOBIN [2]: 25.68 pg
MEAN CORPUSCULAR HEMOGLOBIN CONCENTRATION [2]: 40.35 G/DL
MEAN CORPUSCULAR VOLUME [2]: 63.67 fL
MONOCYTE [2]: 1.83%
NEUTROPHIL [2]: 8.83%
NUCLEATED RED BLOOD CELLS [2]: 0 /100WBC
PLATELET COUNT [2]: 1097.5 x10E3/uL
ALANINE AMINOTRANSFERASE [2]: 54.5 u/L
ALBUMIN [2]: 4.27 G/DL
ALKALINE PHOSPHATASE [2]: 337 u/L
ASPARTATE AMINOTRANSFERASE [2]: 94.67 u/L
BLOOD UREA NITROGEN [2]: 17 mg/dL
CARBON DIOXIDE [2]: 28.33 mmol/L
CHLORIDE [2]: 101.5 MEQ/L
CHOLESTEROL [2]: 71.33 mg/dL
CREATINE PHOSPHOKINASE [2]: 628.17 u/L
CREATININE [2]: 0.19 mg/dL
GLUCOSE [2]: 177.83 mg/dL
LACTATE DEHYDROGENASE [2]: 500.5 u/L
LIPASE [2]: 9.5 u/L
PHOSPHORUS [2]: 12.3 mg/dL
POTASSIUM [2]: 5.63 MEQ/L
SODIUM [2]: 143.03 MEQ/L
TOTAL BILIRUBIN [2]: 0.2 mg/dL
TOTAL PROTEIN [2]: 6.02 G/DL
URIC ACID [2]: 1.5 mg/dL
ABSOLUTE BASOPHIL [3]: 0 CELLS/uL
ABSOLUTE EOSINOPHIL [3]: 38 CELLS/uL
ABSOLUTE LYMPHOCYTE [3]: 11413.33 CELLS/uL
ABSOLUTE MONOCYTE [3]: 0 CELLS/uL
ABSOLUTE SEGMENTED NEUTROPHIL [3]: 882 CELLS/uL
BASOPHIL [3]: 0%
EOSINOPHIL [3]: 0.33%
ERYTHROCYTE COUNT [3]: 5.65 x10E6/uL
HEMATOCRIT [3]: 34.83%
HEMOGLOBIN [3]: 13.93 G/DL
LEUKOCYTE COUNT [3]: 12.33 x10E3/uL
LYMPHOCYTE [3]: 92.67%
MEAN CORPUSCULAR HEMOGLOBIN [3]: 24.63 pg
MEAN CORPUSCULAR HEMOGLOBIN CONCENTRATION [3]: 40 G/DL
MEAN CORPUSCULAR VOLUME [3]: 61.63 fL
MONOCYTE [3]: 0%
NEUTROPHIL [3]: 7%
NUCLEATED RED BLOOD CELLS [3]: 0 /100WBC
PLATELET COUNT [3]: 1245 x10E3/uL
ALANINE AMINOTRANSFERASE [3]: 51.33 u/L
ALBUMIN [3]: 4.23 G/DL
ALKALINE PHOSPHATASE [3]: 334.33 u/L
ASPARTATE AMINOTRANSFERASE [3]: 84.33 u/L
BLOOD UREA NITROGEN [3]: 15.33 mg/dL
CARBON DIOXIDE [3]: 27.33 mmol/L
CHLORIDE [3]: 103.33 MEQ/L
CHOLESTEROL [3]: 74.33 mg/dL
CREATINE PHOSPHOKINASE [3]: 335 u/L
CREATININE [3]: 0.13 mg/dL
GLUCOSE [3]: 133.67 mg/dL
LACTATE DEHYDROGENASE [3]: 97.33 u/L
LIPASE [3]: 10.33 u/L
PHOSPHORUS [3]: 11.7 mg/dL
POTASSIUM [3]: 5.79 MEQ/L
SODIUM [3]: 143.47 MEQ/L
TOTAL BILIRUBIN [3]: 0.13 mg/dL
TOTAL PROTEIN [3]: 5.77 G/DL
URIC ACID [3]: 1.43 mg/dL

— ChEMBL document CHEMBL3885881, “DrugMatrix”
